Test results published in patent US4183939A, “Glaucine analgesic method” (priority 1978, dated 1980).
Where a name gives a salt, the structure may show the parent alone. Read-outs that look alike come from different tables or passages of the source.

Experiments:
mice [1] = assay: phenyl-p-quinone mouse writhing test (oral analgesic activity); assay type: in vivo; details: orally 30 minutes prior to phenyl-p-quinone challenge; for ED50: Mus musculus, po, 0.5 h
Method: Test compounds were evaluated for oral analgesic activity in the phenyl-p-quinone mouse writhing test of Hendershot & Forsaith, J. Pharmacol. Exptl. Therap. 125(3), 237 (1959). Test compounds were administered orally 30 minutes prior to the phenyl-p-quinone challenge. […]

mice [2] = assay: acute lethality (LD50) in mice; assay type: in vivo; details: mortality within 72 hours
Method: (§1) In other operations, various dosages of d,l-glaucine phosphate were administered to groups of mice by the oral route or by intraperitoneal injection, and the dosage which is lethal to 50 percent of the mice (LD50) was calculated from the mortality observations within 72 hours after administration.

mice [3] = assay type: in vivo; details: for jumping behavior after naloxone (in words): naloxone 100 mg/kg intraperitoneal; for stimulation and Straub tail: increasing doses on two consecutive days, d,l-glaucine phosphate highest dose 100 mg/kg
Method: Physical dependency liability was evaluated in mice by the procedure of Saelens, et al., Aoch. Int. Pharmacodynam, 190:213-218, 1971. In this procedure, mice are administered increasing doses of a test compound at intervals on two consectuive days. The last dosage on the second day is followed by intraperitoneal injection of the morphine antagonist, naloxone, at a dosage of 100 mg/kg, and the mice are observed for characteristic jumping behavior indicative of opiate withdrawals or morphine antaganism.

monkeys = assay: abuse potential: self-administration in codeine-habituated monkeys; assay type: in vivo; details: codeine 100 micrograms/kg per injection; d,l-glaucine phosphate substituted at 50, 100, 200 and 400 micrograms/kg per injection
Excerpt: The abuse potential of d,l-glaucine phosphate was studied in two monkeys in a procedure similar to that described by Deneau, et al., Psychopharmacologia 16(1):30-48, 1969.
In this procedure, the test monkeys are restrained and catheter inserted into the external jugular vein for injection of test substances in response to pressing a bar lever by the monkey. The test monkeys are first habituated to self-administer codeine at a rate of 100 micrograms/kilograms per injection. The self-administration rate of the two monkeys so trained and habituated was about 100 to 150 lever pushes per two hour session at the 100 microgram codeine level. […]

[4] = acute lethality (LD50) in mice; assay type: in vivo; details: mouse, in vivo, mortality within 72 hours
Method: as §1

[5] = assay type: in vivo; details: intraperitoneal injection 45-60 minutes before testing
[6] = in vivo; cited from earlier work
[7] = plasma concentration levels of glaucine in guinea pigs; assay type: in vivo; details: for concentration at 0.25 h: 15 minutes after dosing, l-isomer orally 5 mg/kg, read-out: plasma glaucine level after 15 minutes
Method: Test compounds were administered to guinea pigs, and blood samples were collected at 15 minute intervals and analyzed to determine plasma concentration levels of glaucine.
Similar results were obtained with d- and l-glaucine phosphate, with l-glaucine phosphate producing from 3 to 6 or more times the levels obtained with the d-isomer throughout a 120 minute period.

mice [8] = assay: protecting mice against writhing induced by intraperitoneal injection of aqueous 0.1 percent hydrochloric acid; assay type: in vivo; details: subcutaneous, 15 minutes before HCl; for ED50: Mus musculus, sc
Method: l-Glaucine hydrobromide and d-glaucine hydrobromide were evaluated for analgesic activity in protecting mice against characteristic writhing induced by intraperitoneal injection of aqueous 0.1 percent hydrochloric acid, injected 15 minutes after subcutaneous injection of a test compound.

mice [9] = assay: animal or person; assay type: in vivo; details: Mus musculus, sc, 0.5 h; first evaluation; subcutaneous injection 30 minutes before testing; read-out: ED50 (hot plate)
Method: The test compounds were administered by subcutaneous injection 30 minutes before testing.

[10] = in vivo; cited from earlier work; remark: listed apart in the source
mice [11] = details: cited from earlier work
[12] = in vivo; cited from earlier work; remark: listed apart in the source
[13] = naloxone 100 mg/kg intraperitoneal after last dose on second day

In the case of COc1cc2c(cc1OC)-c1c(OC)c(OC)cc3c1C(C2)N(C)CC3 (racemic) [d,l-glaucine lactate], the “oral ED50 (phenyl-p-quinone writhing)” value (mice [1]; 30 min) is reported as 25.5 mg/kg, the “LD50, intraperitoneal” value (mice [2]; intraperitoneal) is reported as 178 mg/kg and the “LD50, oral” value (mice [2]; oral, 4320 min) is reported as 383 mg/kg. For the same compound, the “jumping behavior after naloxone (in words)” value (mice [3]) was “no jumping in any of the ten mice tested”.
With COc1cc2c(cc1OC)-c1c(OC)c(OC)cc3c1C(C2)N(C)CC3 (racemic) [d,l-glaucine phosphate] the ED50 (mice [1]) was 23 mg/kg, the self-administration response rate (monkeys) was 10-20 responses/two hour session and the LD50 at 72 h ([4]; ip, intraperitoneal, read-out: LD50, intraperitoneal) was 178 mg/kg. For the same compound, the LD50 at 72 h ([4]; po, read-out: LD50, oral) was ≥ 681 mg/kg, the “stimulation and Straub tail” value (mice [3]) was “no Straub tail at the highest dose” and the “jumping behavior after naloxone (in words)” value (mice [3]; listed as d,l-Glaucine phosphate 1:11/2 salt) was “no jumping behavior in any of the eight mice tested”.
With COc1ccc2c3c1O[C@H]1[C@@H](O)C=C[C@H]4[C@@H](C2)N(C)CC[C@@]341 [codeine phosphate] the ED50 (mice [1]) was 21.1 mg/kg, the “ED50 (tail pinch)” value [5] was 6.8 mg/kg and the “stimulation and Straub tail” value (mice [3]) was “produced Straub tail and stimulation”. The “mice jumping after naloxone” value (mice [3]; [13]) was 2 of 6 and the “total jumps after naloxone” value (mice [3]; [13]) was 23 jumps total.
With COc1ccc2c3c1O[C@H]1[C@@H](O)C=C[C@H]4[C@@H](C2)N(C)CC[C@@]341 [codeine] the self-administration response rate (monkeys) was 100-150 responses/two hour session.
For CCC(=O)O[C@](Cc1ccccc1)(c1ccccc1)[C@H](C)CN(C)C [d-Propoxyphene·HCl], the “ED50 (tail pinch)” value [5] was 16.7 mg/kg.
For COc1cc2c(cc1OC)-c1c(OC)c(OC)cc3c1[C@H](C2)N(C)CC3 [d-glaucine hydrobromide], the ED50 (mice [1]) is listed as 34 mg/kg, the antitussive activity [6] is listed as “antitussive activity” and the “analgesic activity (tail pinch)” value [5] is listed as “No analgesic activity was observed”. For the same compound, the “plasma level after initial peak, throughout the 90 minute period” value ([7]; after initial peak at 15 minutes, to 90 minutes) was 20-40 nanograms/ml, the concentration at 0.25 h ([7]; guinea pig, plasma, po) was ~0.05 µg/mL and the Tmax ([7]; guinea pig, plasma, read-out: time of initial peak plasma level (converted)) was 15 min. For the same compound, the ED50 (mice [8]) was 12.9 mg/kg, the “95 percent confidence limits of ED50 (HCl writhing)” value (mice [8]) was 5.24 to 31.8 mg/kg and the ED50 (mice [9]) was 23.8 mg/kg.
For COc1cc2c(cc1OC)-c1c(OC)c(OC)cc3c1[C@H](C2)N(C)CC3 [d-glaucine], the adrenolytic activity [10] is listed as “adrenolytic activity”, the “hexenal and chloral hydrate sleep time” value (mice [11]) is listed as “prolongs hexenal and chloral hydrate sleep time” and the “doses with analgesic activity” value [12] is listed as 50 to 100 mg/kg.
For COc1cc2c(cc1OC)-c1c(OC)c(OC)cc3c1[C@@H](C2)N(C)CC3 [l-glaucine hydrobromide], the ED50 (mice [1]) was 17 mg/kg, the “analgesic activity (tail pinch)” value [5] was “No analgesic activity was observed” and the concentration at 0.25 h ([7]; guinea pig, plasma, po) was ~0.04 µg/mL. The concentration at 1.5 h ([7]; guinea pig, plasma, po, orally 5 mg/kg, end of 90 minutes test period, read-out: plasma glaucine level at end of test period) was ~0.2 µg/mL, the Cmax ([7]; guinea pig, plasma, po, orally 5 mg/kg, one hour after administration, read-out: peak plasma glaucine level) was > 0.35 µg/mL and the “time of peak plasma level” value ([7]; orally 5 mg/kg) was “one”. The ED50 (mice [8]) was 5.99 mg/kg, the “95 percent confidence limits of ED50 (HCl writhing)” value (mice [8]) was 2.43 to 14.8 mg/kg and the ED50 (mice [9]) was 12.7 mg/kg.
